Consider 19 molecules from PubChem BioAssay AID228 (DTP/NCI, 2004).

For this experiment, the system named is BDF1 mice, Friend leukemia sc, tumor weight T/C. Description: NCI In Vivo Anticancer Drug Screen. Data for tumor model Friend Virus Leukemia (Solid) (subcutaneous) in B6D2F1 (BDF1) mice. Particulars: endpoint: mean tumor weight, higher = larger tumour. Here is the method:
The antitumor activity of compounds was measured in mice bearing transplantable tumors. Survival or tumor size were measured and the results are expressed as the measurement made in the treated group (T) divided by the measurement made in the vehicle treated control group (C). The tumor model used in this assay is Friend Virus Leukemia (Solid) (subcutaneous) in B6D2F1 (BDF1) mice

The mark [1] stands for this setting: dose: 37.5 mg/kg/injection, schedule: Q01DX011 (ip), vehicle: carboxymethylcellulose (CMC).
[2] abbreviates: dose: 125.0 mg/kg/injection, schedule: Q01DX011 (ip), vehicle: carboxymethylcellulose (CMC).
[3] abbreviates: dose: 250.0 mg/kg/injection, schedule: Q01DX011 (ip), vehicle: carboxymethylcellulose (CMC).
Setting [4] is: dose: 1.0 mg/kg/injection, schedule: Q01DX011 (ip), vehicle: carboxymethylcellulose (CMC).
The mark [5] stands for this setting: dose: 2.0 mg/kg/injection, schedule: Q01DX011 (ip), vehicle: carboxymethylcellulose (CMC).
The mark [6] stands for this setting: dose: 4.0 mg/kg/injection, schedule: Q01DX011 (ip), vehicle: carboxymethylcellulose (CMC).
[7] abbreviates: dose: 1.5 mg/kg/injection, schedule: Q01DX011 (ip), vehicle: carboxymethylcellulose (CMC).
Where [8] appears, read: dose: 12.0 mg/kg/injection, schedule: Q01DX011 (ip), vehicle: carboxymethylcellulose (CMC).
Where [9] appears, read: dose: 25.0 mg/kg/injection, schedule: Q01DX011 (ip), vehicle: carboxymethylcellulose (CMC).
Where [10] appears, read: dose: 50.0 mg/kg/injection, schedule: Q01DX011 (ip), vehicle: carboxymethylcellulose (CMC).
Where [11] appears, read: dose: 100.0 mg/kg/injection, schedule: Q01DX011 (ip), vehicle: carboxymethylcellulose (CMC).
Setting [12] is: dose: 15.0 mg/kg/injection, schedule: Q01DX011 (ip), vehicle: carboxymethylcellulose (CMC).
[13] abbreviates: dose: 60.0 mg/kg/injection, schedule: Q01DX011 (ip), vehicle: carboxymethylcellulose (CMC).
[14] abbreviates: dose: 0.5 mg/kg/injection, schedule: Q01DX011 (ip), vehicle: carboxymethylcellulose (CMC).
Setting [15] is: dose: 200.0 mg/kg/injection, schedule: Q01DX011 (ip), vehicle: carboxymethylcellulose (CMC).

“And” between values parts separate entries of the source, which are not always exact repeats. Equal values may be shown once. Inconclusive results are not listed. Starred links: 1 amine or outer side, 2 acyl side, 3 side chain; linkers in the order of their positions; H or OH if unused. Positions of bridges follow the written chain, without caps; N, C: chain ends. Non-standard residues stand in square brackets, D forms with d. Residues, ends and D or L forms follow the SMILES beside them. *: point of attachment. X1 = CC(C)C(C)C(C(=O)[*:2])N(C)[*:1]; Picolinoyl(3-OH) = O=C(c1ncccc1O)*; NMePhg = CN[CH](C(=O)O)c1ccccc1; Hyp = O=C(O)[CH]1C[CH](O)CN1; Sar = CNCC(=O)O

With `CCOC(N)=O`, the T/C was 68 % of control under setting [1]; 110 % of control (dose: 62.12 mg/kg/injection, schedule: Q01DX011 (ip), vehicle: carboxymethylcellulose (CMC)); 58 % of control (dose: 62.5 mg/kg/injection, schedule: Q01DX011 (ip), vehicle: carboxymethylcellulose (CMC)); 50 % of control (dose: 75.0 mg/kg/injection, schedule: Q01DX011 (ip), vehicle: carboxymethylcellulose (CMC)); 67 % of control under setting [2]; 95 % of control (dose: 125.25 mg/kg/injection, schedule: Q01DX011 (ip), vehicle: carboxymethylcellulose (CMC)). The T/C (dose: 150.0 mg/kg/injection, schedule: Q01DX011 (ip), vehicle: carboxymethylcellulose (CMC)) is 52 % of control and 36 % of control; the T/C under setting [3] is 58 % of control and 66 % of control and 50 % of control; the T/C (dose: 250.5 mg/kg/injection, schedule: Q01DX011 (ip), vehicle: carboxymethylcellulose (CMC)) is 115 % of control; the T/C (dose: 300.0 mg/kg/injection, schedule: Q01DX011 (ip), vehicle: carboxymethylcellulose (CMC)) is 21 % of control; the T/C (dose: 334.0 mg/kg/injection, schedule: Q01DX011 (ip), vehicle: carboxymethylcellulose (CMC)) is 56 % of control and 37 % of control; the T/C (dose: 450.0 mg/kg/injection, schedule: Q01DX011 (ip), vehicle: carboxymethylcellulose (CMC)) was 20 % of control. The T/C (dose: 600.0 mg/kg/injection, schedule: Q01DX011 (ip), vehicle: carboxymethylcellulose (CMC)) was 26 % of control and the T/C (dose: 800.0 mg/kg/injection, schedule: Q01DX011 (ip), vehicle: carboxymethylcellulose (CMC)) was 36 % of control.

For the molecule `c1ncc2[nH]cnc2n1`, the T/C reads like this: (dose: 27.5 mg/kg/injection, schedule: Q01DX011 (ip), vehicle: carboxymethylcellulose (CMC)) 104 % of control; (dose: 55.0 mg/kg/injection, schedule: Q01DX011 (ip), vehicle: carboxymethylcellulose (CMC)) 87 % of control; (dose: 110.0 mg/kg/injection, schedule: Q01DX011 (ip), vehicle: carboxymethylcellulose (CMC)) 81 % of control; (dose: 219.0 mg/kg/injection, schedule: Q01DX011 (ip), vehicle: carboxymethylcellulose (CMC)) 43 % of control.

Turning to `NC(Cc1cccs1)C(=O)O` (stereo unspecified), the T/C under setting [3] was 112 % of control.

`COc1ccc(Nc2ccnc3cc(Cl)ccc23)cc1CN(CCCl)CCCl`: the T/C runs as follows: under setting [4], 81 % of control; under setting [5], 76 % of control; under setting [6], 42 % of control.

Consider `O=c1[nH]c(=O)n(C2CC(O)C(CO)O2)cc1Br` (stereo unspecified), for which the T/C under setting [2] was 72 % of control and the T/C under setting [3] was 52 % of control.

As to `Nc1nc(=S)c2ncn(C3OC(CO)C(O)C3O)c2[nH]1` (stereo unspecified), the T/C runs as follows: (dose: 0.18 mg/kg/injection, schedule: Q01DX011 (ip), vehicle: carboxymethylcellulose (CMC)) 74 % of control; (dose: 0.37 mg/kg/injection, schedule: Q01DX011 (ip), vehicle: carboxymethylcellulose (CMC)) 63 % of control; (dose: 0.6 mg/kg/injection, schedule: Q01DX011 (ip), vehicle: carboxymethylcellulose (CMC)) 53 % of control; under setting [4], 36 % of control; under setting [7], 31 % of control and 48 % of control.

Turning to `S=c1nc[nH]c2c1ncn2C1CCCO1` (stereo unspecified), the T/C is, setting by setting: (dose: 0.75 mg/kg/injection, schedule: Q01DX011 (ip), vehicle: carboxymethylcellulose (CMC)) 79 % of control; under setting [7], 65 % of control; (dose: 6.0 mg/kg/injection, schedule: Q01DX011 (ip), vehicle: carboxymethylcellulose (CMC)) 54 % of control and 35 % of control; under setting [8], 27 % of control and 45 % of control; under setting [9], 9 % of control and 10 % of control; under setting [10], 2 % of control and 20 % of control. Besides, the T/C under setting [11] was 1 % of control and 3 % of control.

For the molecule `CS(=O)(=O)OCCCOS(C)(=O)=O`, the T/C runs as follows: under setting [12], 100 % of control; (dose: 30.0 mg/kg/injection, schedule: Q01DX011 (ip), vehicle: carboxymethylcellulose (CMC)) 98 % of control; under setting [13], 31 % of control and 46 % of control; (dose: 120.0 mg/kg/injection, schedule: Q01DX011 (ip), vehicle: carboxymethylcellulose (CMC)) 22 % of control.

Consider `CCC[CH2][Sn]([CH2]CCC)([CH2]CCC)[O]C(=O)CC[S][Sn]([CH2]CCC)([CH2]CCC)[CH2]CCC`, for which the T/C under setting [5] is 108 % of control and the T/C under setting [6] was 82 % of control.

Turning to `CN(Cc1cnc2nc(N)nc(N)c2n1)c1ccc(C(=O)N[C@@H](CCC(=O)O)C(=O)O)cc1`, the T/C runs as follows: (dose: 0.37 mg/kg/injection, schedule: Q01DX011 (ip), vehicle: saline) 68 % of control; under setting [14], 44 % of control; (dose: 0.75 mg/kg/injection, schedule: Q01DX011 (ip), vehicle: saline) 91 % of control; (dose: 0.8 mg/kg/injection, schedule: Q01DX011 (ip), vehicle: carboxymethylcellulose (CMC)) 71 % of control and 88 % of control; (dose: 1.4 mg/kg/injection, schedule: Q01DX011 (ip), vehicle: carboxymethylcellulose (CMC)) 36 % of control; under setting [7], 16 % of control. In addition, the T/C (dose: 1.5 mg/kg/injection, schedule: Q01DX011 (ip), vehicle: saline) was 49 % of control.

As for `CC(C)CC1NC(=O)C(NC(=O)c2ncccc2O)C(C)OC(=O)C(c2ccccc2)N(C)C(=O)C(C)NC(=O)C(C(C)C(C)C)N(C)C(=O)CN(C)C(=O)C2CC(O)CN2C1=O` (stereo unspecified) ({Picolinoyl(3-OH)}-TL[Hyp][Sar][X1]A[NMePhg]; ester 1-C; configuration not given here), the T/C reads like this: under setting [9], 57 % of control; under setting [10], 49 % of control; under setting [11], 64 % of control; under setting [15], 39 % of control.

Regarding `S=C(N=Nc1ccccc1)NNc1ccccc1`, under setting [1], the T/C was 92 % of control.

`NC(=O)/C=C/C(=O)O` (tested in a mixture with another compound): the T/C was 78 % of control (dose: 7.5 mg/kg/injection, schedule: Q#A X022 (ip), vehicle: carboxymethylcellulose (CMC)) and 66 % of control (dose: 15.5 mg/kg/injection, schedule: Q#A X022 (ip), vehicle: carboxymethylcellulose (CMC)).

Turning to `CCn1cnc2c(=S)nc(N)[nH]c21`, the T/C under setting [14] was 76 % of control; the T/C under setting [4] is 89 % of control; the T/C (dose: 3.0 mg/kg/injection, schedule: Q01DX011 (ip), vehicle: carboxymethylcellulose (CMC)) was 24 % of control and 49 % of control; the T/C (dose: 7.0 mg/kg/injection, schedule: Q01DX011 (ip), vehicle: carboxymethylcellulose (CMC)) was 11 % of control; the T/C under setting [12] was 4 % of control and 18 % of control.

`CCCC(Sc1nc(N)nc2nc[nH]c12)C(=O)O` (stereo unspecified): the T/C was 77 % of control (dose: 40.0 mg/kg/injection, schedule: Q01DX011 (ip), vehicle: carboxymethylcellulose (CMC)); 45 % of control (dose: 80.0 mg/kg/injection, schedule: Q01DX011 (ip), vehicle: carboxymethylcellulose (CMC)); 5 % of control (dose: 160.0 mg/kg/injection, schedule: Q01DX011 (ip), vehicle: carboxymethylcellulose (CMC)).

For `CCCCCCCCCC(C)(O)C#CC(C)(O)CCCCCCCCC` (stereo unspecified), the T/C runs as follows: under setting [8], 81 % of control; under setting [9], 82 % of control; under setting [10], 58 % of control and 59 % of control; under setting [11], 55 % of control; under setting [15], 34 % of control.

Turning to `Oc1cc(CN(CCCl)CCCl)c(O)cc1CN(CCCl)CCCl`, the T/C is 63 % of control (dose: 0.44 mg/kg/injection, schedule: Q01DX011 (ip), vehicle: carboxymethylcellulose (CMC)) and 86 % of control (dose: 0.88 mg/kg/injection, schedule: Q01DX011 (ip), vehicle: carboxymethylcellulose (CMC)).

As for `NNC(=O)c1nsnc1NC(N)=O`, the T/C runs as follows: (dose: 43.0 mg/kg/injection, schedule: Q01DX011 (ip), vehicle: carboxymethylcellulose (CMC)) 53 % of control; under setting [13], 46 % of control.

Regarding `CCCCSc1nc(N)nc2c1ncn2CC(C)CC` (stereo unspecified), the T/C was 68 % of control under setting [2]; 75 % of control under setting [3]; 23 % of control (dose: 500.0 mg/kg/injection, schedule: Q01DX011 (ip), vehicle: carboxymethylcellulose (CMC)).
